The term IC50 denotes the concentration needed to halve the response being measured.

Results on 13 molecules are retold here after patent publication US11285156B2, “Substituted piperazines as KRAS G12C inhibitors” (Amgen Inc., priority 2018, dated 2022).

Each structure is given as a SMILES string. Where two headings read alike, the source gives them in different places.

In test [1] the test system is Phosphorylation of ERK1/2 in A549 cells. The experiment in a line: Phospho-ERK1/2 MSD assay in A549 cells. The test is classed as cell-based. To be noted: read-out: p-ERK IC50 (2 h, A549; μM), 2 h compound treatment, A549 cells, EGF stimulated. The gist of the method:
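MSD electrochemiluminescent read-out of phospho-ERK1/2 in RIPA lysates. Cells in RPMI 1640 with 10% FBS received titrated compound for 2 or 4 h, then 10 ng/mL EGF for 10 min before ice-cold PBS wash and lysis.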

The target of test [2] is GDP-bound KRAS protein (aa 1-169), containing both G12C and C118A amino acid substitutions (Homo sapiens (Human), UniProt P01116, C118A/G12C). The experiment in a line: Coupled nucleotide exchange assay (SOS-mediated nucleotide exchange, AlphaScreen). To be noted: read-out: Coupled exchange IC50 (5 min; μM); 5 min compound pre-incubation. The test is classed as biochemical. Background: Bead proximity is the source of the signal in Alpha formats.

Test [3] relates to Phosphorylation of ERK1/2 in MIA PaCa-2 cells. The experiment in a line: Phospho-ERK1/2 MSD assay in MIA PaCa-2 cells. The class given is cell-based. To be noted: read-out: p-ERK IC50 (2 h, MiaPaCa-2; μM), 2 h compound treatment, MIA PaCa-2 cells, EGF stimulated. The essentials: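 Phospho-ERK1/2 measured by MSD electrochemiluminescence kit in RIPA lysates of MIA PaCa-2 cells. Cells were treated with compound titrations for 2 or 4 h at 37 °C, 5% CO2, followed by a 10 min pulse of 10 ng/mL EGF.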

Sequence of GDP-bound KRAS protein (aa 1-169), containing both G12C and C118A amino acid substitutions (P01116 other isoform, or with tags, fused parts or gaps G12C/C118A): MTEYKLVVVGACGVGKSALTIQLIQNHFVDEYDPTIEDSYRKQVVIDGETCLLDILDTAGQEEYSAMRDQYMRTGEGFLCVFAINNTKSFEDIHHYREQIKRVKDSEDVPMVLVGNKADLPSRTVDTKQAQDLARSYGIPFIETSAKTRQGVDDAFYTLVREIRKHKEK

In the case of `C=CC(=O)N1C[C@H](C)N(c2nc(=O)n(-c3c(C)ccnc3C(C)C)c3nc(-c4ccccc4NC(=O)C(F)F)c(Cl)cc23)C[C@H]1C` (atropisomer, axis not shown; (M)) [Example 129-11, (M)-N-[2-[6-Chloro-4-[(2S,5R)-2,5-dimethyl-4-prop-2-enoyl-piperazin-1-yl]-1-(2-isopropyl-4-methyl-3-pyridyl)-2-oxo-pyrido[2,3-d]pyrimidin-7-yl]phenyl]-2,2-difluoro-acetamide], the IC50 in test [1] (Homo sapiens, A549, 2 h) was greater than 7.5 µM; in test [2] it was 0.152 µM; in test [3] (Homo sapiens, MIA PaCa-2, 2 h), 0.247 µM.

Take `C=CC(=O)N1C[C@H](C)N(c2nc(=O)n(-c3c(C)ccnc3C(C)C)c3nc(-c4cc(O)cc5ccccc45)c(Cl)cc23)C[C@H]1C` (atropisomer, axis not shown; (M)) [Example 132-1, (M)-6-Chloro-4-[(2S,5R)-2,5-dimethyl-4-prop-2-enoyl-piperazin-1-yl]-7-(3-hydroxy-1-naphthyl)-1-(2-isopropyl-4-methyl-3-pyridyl)pyrido[2,3-d]pyrimidin-2-one]: the IC50 in test [1] is greater than 7.5 µM; in test [2], 0.053 µM; in test [3], 0.46 µM.

With `C=CC(=O)N1CCN(c2nc(=O)n(-c3c(C)ccnc3C(C)C)c3nc(-c4c(N)cccc4F)c(Cl)cc23)CC1CC#N` (atropisomer, axis not shown; (M)) [Example 144-1, (M)-2-[4-[7-(2-Amino-6-fluoro-phenyl)-6-chloro-1-(2-isopropyl-4-methyl-3-pyridyl)-2-oxo-pyrido[2,3-d]pyrimidin-4-yl]-1-prop-2-enoyl-piperazin-2-yl]acetonitrile], the IC50 in test [1] is greater than 7.5 µM; in test [2], 0.166 µM; in test [3], 0.23 µM.

Regarding `C=CC(=O)N1CCN(c2nc(=O)n(-c3c(C)ccnc3C(C)C)c3nc(Cl)c(Cl)cc23)CC1CC#N` (atropisomer, axis not shown; (M)) [Example 144-2-2, (M)-2-[4-[6,7-Dichloro-1-(2-isopropyl-4-methyl-3-pyridyl)-2-oxo-pyrido[2,3-d]pyrimidin-4-yl]-1-prop-2-enoyl-piperazin-2-yl]acetonitrile], the IC50 in test [1] (Homo sapiens, A549, 2 h) came out at 4 µM; in test [2], 9.13 µM; in test [3] (Homo sapiens, MIA PaCa-2, 2 h) it was 3.1 µM.

Turning to `C=CC(=O)N1CCN(c2nc(=O)n(-c3c(C)ccnc3C(C)C)c3nc(-c4c(O)cccc4F)c(Cl)cc23)CC1CC#N` (atropisomer, axis not shown; (M)) [Example 144-3, (M)-2-[4-[6-Chloro-7-(2-fluoro-6-hydroxy-phenyl)-1-(2-isopropyl-4-methyl-3-pyridyl)-2-oxo-pyrido[2,3-d]pyrimidin-4-yl]-1-prop-2-enoyl-piperazin-2-yl]acetonitrile], the IC50 is greater than 7.5 µM in test [1] (Homo sapiens, A549, 2 h); 0.166 µM in test [2]; 2.41 µM in test [3] (Homo sapiens, MIA PaCa-2, 2 h).

As to `C=CC(=O)N1CCN(c2nc(=O)n(-c3c(C)ccnc3C(C)C)c3nc(-c4ccccc4F)c(Cl)cc23)CC1CC#N` (atropisomer, axis not shown; (M)) [Example 145-2, (M)-2-[4-[6-Chloro-7-(2-fluorophenyl)-1-(2-isopropyl-4-methyl-3-pyridyl)-2-oxo-pyrido[2,3-d]pyrimidin-4-yl]-1-prop-2-enoyl-piperazin-2-yl]acetonitrile], the IC50 is greater than 7.5 µM in test [1] (Homo sapiens, A549, 2 h); 0.344 µM in test [2]; 1.68 µM in test [3].

Regarding `C=CC(=O)N1CCN(c2nc(=O)n(-c3c(C)ccnc3C(C)C)c3nc(-c4ccccc4F)c(Cl)cc23)CC1CC#N` (atropisomer, axis not shown; (M)) [Example 145-2-1, (M)-2-[4-[6-Chloro-7-(2-fluorophenyl)-1-(2-isopropyl-4-methyl-3-pyridyl)-2-oxo-pyrido[2,3-d]pyrimidin-4-yl]-1-prop-2-enoyl-piperazin-2-yl]acetonitrile], the figures for the IC50 in test [1], in test [2] and in test [3] were greater than 7.5 µM, 0.294 µM and 0.356 µM, respectively.

Regarding `C=CC(=O)N1CCN(c2nc(=O)n(-c3c(C)ccnc3C(C)C)c3nc(-c4ccccc4F)c(Cl)cc23)CC1CC#N` (atropisomer, axis not shown; (M)) [Example 145-2-2, (M)-2-[4-[6-Chloro-7-(2-fluorophenyl)-1-(2-isopropyl-4-methyl-3-pyridyl)-2-oxo-pyrido[2,3-d]pyrimidin-4-yl]-1-prop-2-enoyl-piperazin-2-yl]acetonitrile], the IC50 in test [1] is greater than 7.5 µM; in test [2] it was 0.238 µM; in test [3] it was 0.213 µM.

With `C=CC(=O)N1C[C@H](C)N(c2nc(=O)n3c4nc(c(Cl)cc24)-c2ccccc2C/C=C/Cc2cccc(C(C)C)c2-3)C[C@H]1C` (atropisomer, axis not shown; (M)) [Example 146-2, (M)-(9Z)-19-Chloro-22-((2S,5R)-2,5-dimethyl-4-(2-propenoyl)-1-piperazinyl)-3-(2-propanyl)-1,23,26-triazapentacyclo[16.6.2.0~2,7~.0~12,17~.0~21,25~]hexacosa-2,4,6,9,12,14,16,18,20,22,25-undecaen-24-one, (M)-19-chloro-22-((2S,5R)-2,5-dimethyl-4-(2-propenoyl)-1-piperazinyl)-3-(2-propanyl)-1,23,26-triazapentacyclo[16.6.2.0~2,7~.0~12,17~.0~21,25~]hexacosa-2,4,6,9,12,14,16,18,20,22,25-undecaen-24-one], the IC50 in test [1] (Homo sapiens, A549, 2 h) came to 6.51 µM; in test [2], 0.028 µM; in test [3] (Homo sapiens, MIA PaCa-2, 2 h), 0.038 µM.

In the case of `C=CC(=O)N1CCN(c2nc(=O)n(-c3c(C)ccnc3C(C)C)c3nc(-c4ccccc4F)c(Cl)cc23)C2CC21` (atropisomer, axis not shown; (M)) [Example 222, (M)-4-(5-Acryloyl-2,5-diazabicyclo[4.1.0]heptan-2-yl)-6-chloro-7-(2-fluorophenyl)-1-(2-isopropyl-4-methylpyridin-3-yl)pyrido[2,3-d]pyrimidin-2(1H)-one], the IC50 came to 2.71 µM in test [1], 0.705 µM in test [2] and 0.057 µM in test [3].

For the molecule `C=CC(=O)N1CCN(c2nc(=O)n(-c3c(C)ccnc3C(C)C)c3nc(-c4ccccc4F)c(Cl)cc23)[C@H]2C[C@H]21` (atropisomer, axis not shown; (M)) [Example 222-2, (M)-4-((1S,6R)-5-acryloyl-2,5-diazabicyclo[4.1.0]heptan-2-yl)-6-chloro-7-(2-fluorophenyl)-1-(2-isopropyl-4-methylpyridin-3-yl)pyrido[2,3-d]pyrimidin-2(1H)-one], the half-maximal inhibitory concentration (IC50) in test [1] was 2.52 µM; in test [2], 0.014 µM; in test [3], 0.048 µM.

Take `C#Cc1ccc(F)c(-c2nc3c(cc2Cl)c(N2C[C@@H](C)N(C(=O)C=C)C[C@@H]2C)nc(=O)n3-c2c(C)ccnc2C(C)C)c1` (atropisomer, axis not shown; (M)) [Example 226, (M)-6-Chloro-4-[(2S,5R)-2,5-dimethyl-4-prop-2-enoyl-piperazin-1-yl]-7-(5-ethynyl-2-fluoro-phenyl)-1-(2-isopropyl-4-methyl-3-pyridyl)pyrido[2,3-d]pyrimidin-2-one]: the IC50 in test [1] was greater than 7.5 µM; in test [2], 0.04 µM; in test [3], 0.063 µM.

Turning to `C=CC(=O)N1C[C@H](C)N(c2nc(=O)n3c4nc(c(Cl)cc24)-c2ccccc2C/C=C\Cc2ccccc2-3)C[C@H]1C` (atropisomer, axis not shown; (P)) [Example 146-3], the IC50 in test [1] (Homo sapiens, A549, 2 h) was greater than 7.5 µM; in test [2] it was 7.03 µM; in test [3] it was 4.26 µM.
